Measurements published in article PMC11672294, “The Antipsychotic Drug Aripiprazole Suppresses Colorectal Cancer by Targeting LAMP2a to Induce RNH1/miR‐99a/mTOR‐Mediated Autophagy and Apoptosis” (Advanced Science, 2024).
Structures can show the parent of a compound that is named as a salt.

system: HT29; details: 72 h, relative to DMSO, 10 µM, Relative cell viability (%)
How it was run: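 HT29 viability used WST-1 reduction (2 h, 37 °C, A450) after 72 h of treatment; screening compounds were tested singly at 10 µM, with dimethyl sulfoxide as the comparison.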

Question: How did the “Relative cell viability (%)” value turn out when `CCOC(=O)C1=C(COCCN)NC(C)=C(C(=O)OC)C1c1ccccc1Cl` (stereo not shown) [Amlodipine] was run?
Answer: 88.54%

same assay, conditions: 72 h, relative to DMSO; 10 µM

Question: With `Cc1c(OCC(F)(F)F)ccnc1C[S+]([O-])c1nc2ccccc2[nH]1` (stereo not shown) [Lansoprazole] as the compound, how does the “Relative cell viability (%)” value read?
Answer: 63.4%

Question: Which “Relative cell viability (%)” value does the source give for `C[N+](C)(C)CC(O)CC(=O)[O-]` (racemic) [DL-Carnitine HCl] here?
Answer: 125.5%

Question: How did the “Relative cell viability (%)” value turn out when `CC1=NN(c2ccccc2)C(=O)C1` [Edaravone] was run?
Answer: 97.66%

Question: Which “Relative cell viability (%)” value does the source give for `CC(C)(Oc1ccc(C2CC2(Cl)Cl)cc1)C(=O)O` (stereo not shown) [Ciprofibrate] here?
Answer: 34.47%

Question: `C[C@@H]1C[C@H]2[C@@H]3CCC4=CC(=O)C=C[C@]4(C)[C@@]3(F)[C@@H](O)C[C@]2(C)[C@@]1(O)C(=O)CO` [Dexamethasone (DHAP)] was tested. Which “Relative cell viability (%)” value did it give?
Answer: 75.86%

Question: For `C=CC(=O)N1CCC(Oc2cc3c(Nc4ccc(Cl)c(Cl)c4F)ncnc3cc2OC)CC1` [Poziotinib (HM781-36B)], which “Relative cell viability (%)” value is on record?
Answer: 68.8%

Question: With `CN1CCC(COc2cnc(-c3cccc(Cn4nc(-c5cccc(C#N)c5)ccc4=O)c3)nc2)CC1` [Tepotinib (EMD 1214063)] as the compound, how does the “Relative cell viability (%)” value read?
Answer: 11.11%

Question: With `CCN1CCN(c2cc3c(cc2F)c(=O)c(C(=O)O)cn3C2CC2)CC1` [Enrofloxacin] as the compound, how does the “Relative cell viability (%)” value read?
Answer: 78.16%

Question: Which “Relative cell viability (%)” value does the source give for `CCCCCCCC(=O)N[C@H](CN1CCCC1)[C@H](O)c1ccc2c(c1)OCCO2` [Eliglustat Tartrate] here?
Answer: 81.62%

Question: How did the “Relative cell viability (%)” value turn out when `CC(C)N(CCNC(=O)CN1CCCC1=O)C(C)C` [Pramiracetam] was run?
Answer: 79.61%

Question: For `CCN(CC)CCNC(=O)c1c(C)[nH]c(/C=C2\C(=O)Nc3ccc(F)cc32)c1C` [Sunitinib], which “Relative cell viability (%)” value is on record?
Answer: 29.06%

Question: For `COc1ccc([C@H]2CNC(=O)C2)cc1OC1CCCC1` [S- (+)-Rolipram], which “Relative cell viability (%)” value is on record?
Answer: 107.3%

Question: Which “Relative cell viability (%)” value does the source give for `CC[C@@H]1C(=O)N(C)c2cnc(Nc3ccc(C(=O)N[C@H]4CC[C@H](N5CCN(CC6CC6)CC5)CC4)cc3OC)nc2N1C(C)C` [Volasertib (BI 6727)] here?
Answer: 88.41%

Question: Which “Relative cell viability (%)” value does the source give for `O=C(O)CCc1nc(-c2ccccc2)c(-c2ccccc2)o1` [Oxaprozin] here?
Answer: 63.03%

Question: With `O=C(O)CCNC(=O)c1ccccc1` [Betamipron] as the compound, how does the “Relative cell viability (%)” value read?
Answer: 90.303%

Question: For `NC(=O)c1ncn([C@@H]2O[C@H](CO)[C@@H](O)[C@H]2O)c1N` [Acadesine], which “Relative cell viability (%)” value is on record?
Answer: 105.9%

Question: How did the “Relative cell viability (%)” value turn out when `NNC(=O)c1ccncc1` [Isoniazid] was run?
Answer: 140.3%

Question: How did the “Relative cell viability (%)” value turn out when `CNC(=O)[C@@H](NC(=O)[C@H](CC(C)C)[C@H](O)C(=O)NO)C(C)(C)C` [Marimastat(BB-2516)] was run?
Answer: 121.4%

Question: How did the “Relative cell viability (%)” value turn out when `Cc1cccc(C)c1OCC(=O)N[C@@H](Cc1ccccc1)[C@@H](O)C[C@H](Cc1ccccc1)NC(=O)[C@H](C(C)C)N1CCCNC1=O` [Lopinavir] was run?
Answer: 55.61%

Question: How did the “Relative cell viability (%)” value turn out when `CC[C@H](C)C(=O)O[C@H]1C[C@@H](C)C=C2C=C[C@H](C)[C@H](CC[C@@H]3C[C@@H](O)CC(=O)O3)[C@H]21` [Lovastatin] was run?
Answer: 169.7%

Question: For `CN(CCOc1ccc(CC2SC(=O)NC2=O)cc1)c1ccccn1` (stereo not shown) [Rosiglitazone HCl], which “Relative cell viability (%)” value is on record?
Answer: 114.3%

Question: With `CCOC(=O)[C@H](CCc1ccccc1)N[C@H]1CCCN2CCC[C@@H](C(=O)O)N2C1=O` [Cilazapril Monohydrate] as the compound, how does the “Relative cell viability (%)” value read?
Answer: 112%

Question: How did the “Relative cell viability (%)” value turn out when `Cc1ccccc1C(OCCN(C)C)c1ccccc1` (stereo not shown) [Orphenadrine Citrate] was run?
Answer: 102.4%

Question: Which “Relative cell viability (%)” value does the source give for `NC(=O)c1cc(N2CC2)c([N+](=O)[O-])cc1[N+](=O)[O-]` [CB1954] here?
Answer: 115%

Question: With `CC#C[C@]1(O)CC[C@H]2[C@@H]3CCC4=CC(=O)CCC4=C3[C@@H](c3ccc(N(C)C)cc3)C[C@@]21C` [Mifepristone] as the compound, how does the “Relative cell viability (%)” value read?
Answer: 46.12%

Question: For `COc1cc(C)c(/C=C/C(C)=C/C=C/C(C)=C/C(=O)O)c(C)c1C` [Acitretin], which “Relative cell viability (%)” value is on record?
Answer: 60.28%

Question: How did the “Relative cell viability (%)” value turn out when `CCCC(=O)OCOC(=O)C1=C(C)NC(C)=C(C(=O)OC)C1c1cccc(Cl)c1Cl` (stereo not shown) [Clevidipine Butyrate] was run?
Answer: 112%

Question: With `CC(C)(C)c1ccc(C(=O)CCCN2CCC(OC(c3ccccc3)c3ccccc3)CC2)cc1` [Ebastine] as the compound, how does the “Relative cell viability (%)” value read?
Answer: 13.94%

Question: `CCOC(=O)[C@H](CCc1ccccc1)N[C@H]1CCc2ccccc2N(CC(=O)O)C1=O` [Benazepril HCl] was tested. Which “Relative cell viability (%)” value did it give?
Answer: 72.74%

Question: For `O=C(c1ccc(OCCN2CCCCC2)cc1)c1c(-c2ccc(O)cc2)sc2cc(O)ccc12` [Raloxifene HCl], which “Relative cell viability (%)” value is on record?
Answer: 36.92%

Question: For `CCOC(=O)[C@H](CCc1ccccc1)N[C@@H](C)C(=O)N1[C@H](C(=O)O)C[C@@H]2CCC[C@@H]21` [Ramipril], which “Relative cell viability (%)” value is on record?
Answer: 75.42%

Question: How did the “Relative cell viability (%)” value turn out when `CNC(=O)c1ccc(Nc2ncc(C(F)(F)F)c(NCc3nccnc3N(C)S(C)(=O)=O)n2)cc1` [Defactinib (VS-6063, PF-04554878)] was run?
Answer: 67.52%

Question: With `CO[C@H]1/C=C/O[C@@]2(C)Oc3c(C)c(O)c4c(O)c(c(/C=N/N5CCN(C6CCCC6)CC5)c(O)c4c3C2=O)NC(=O)/C(C)=C\C=C\[C@H](C)[C@H](O)[C@@H](C)[C@@H](O)[C@@H](C)[C@H](OC(C)=O)[C@@H]1C` [Rifapentine] as the compound, how does the “Relative cell viability (%)” value read?
Answer: 69.07%

Question: For `OC[C@H]1OC(O)[C@H](O)[C@@H](O)[C@@H]1O` (stereo partly shown) [Dextrose], which “Relative cell viability (%)” value is on record?
Answer: 126.7%

Question: With `Clc1ccc(C(Cn2ccnc2)OCc2ccc(Sc3ccccc3)cc2)c(Cl)c1` (stereo not shown) [Fenticonazole Nitrate] as the compound, how does the “Relative cell viability (%)” value read?
Answer: 58.4%

Question: Which “Relative cell viability (%)” value does the source give for `O=c1oc2cc(O)ccc2s1` [Tioxolone] here?
Answer: 114.6%

Question: How did the “Relative cell viability (%)” value turn out when `CN(C)c1ccc(C(=C2C=CC(=[N+](C)C)C=C2)c2ccc(N(C)C)cc2)cc1` [Crystal Violet] was run?
Answer: 4.52%

Question: `CN/C(=N/CCSCc1nc[nH]c1C)NC#N` [Cimetidine] was tested. Which “Relative cell viability (%)” value did it give?
Answer: 97.03%

Question: Which “Relative cell viability (%)” value does the source give for `CN(C)CC/C=C1/c2ccccc2Sc2ccc(Cl)cc21` [Chlorprothixene] here?
Answer: 28.39%

Question: How did the “Relative cell viability (%)” value turn out when `CS(=O)(=O)Nc1ccc([N+](=O)[O-])cc1Oc1ccccc1` [Nimesulide] was run?
Answer: 191.7%

Question: For `C[C@H](NC(=O)C(=O)Nc1ccccc1C(C)(C)C)C(=O)N[C@@H](CC(=O)O)C(=O)COc1c(F)c(F)cc(F)c1F` [Emricasan], which “Relative cell viability (%)” value is on record?
Answer: 86.75%

Question: Which “Relative cell viability (%)” value does the source give for `CC(=O)c1cc2c(o1)C(=O)c1ccccc1C2=O` [Napabucasin] here?
Answer: 0%

Question: `C[C@]12CC[C@H](O)CC1=CC[C@@H]1[C@@H]2CC[C@]2(C)C(n3cnc4ccccc43)=CC[C@@H]12` [Galeterone] was tested. Which “Relative cell viability (%)” value did it give?
Answer: 25.73%

Question: Which “Relative cell viability (%)” value does the source give for `CO[C@H]1C(=O)[C@]2(C)[C@@H](OC)C[C@H]3OC[C@@]3(OC(C)=O)[C@H]2[C@H](OC(=O)c2ccccc2)[C@]2(O)C[C@H](OC(=O)[C@H](O)[C@@H](NC(=O)OC(C)(C)C)c3ccccc3)C(C)=C1C2(C)C` [Cabazitaxel] here?
Answer: 12.62%

Question: `CCOc1nc2cccc(C(=O)OCc3oc(=O)oc3C)c2n1Cc1ccc(-c2ccccc2-c2noc(=O)[nH]2)cc1` [Azilsartan Medoxomil] was tested. Which “Relative cell viability (%)” value did it give?
Answer: 116%

Question: How did the “Relative cell viability (%)” value turn out when `CC1(C)Cc2c(-c3ccccc3)c(-c3ccc(Cl)cc3)c(CC(=O)O)n2C1` [Licofelone] was run?
Answer: 137.9%

Question: For `Cc1ccc(-n2nccn2)c(C(=O)N2CCN(c3nc4cc(Cl)ccc4o3)CC[C@H]2C)c1` [Suvorexant (MK-4305)], which “Relative cell viability (%)” value is on record?
Answer: 90.6%

same assay, conditions: ht29 cells, 72 h, 10 µM

Question: How did the “Relative cell viability (%)” value turn out when `CC[C@H]1OC(=O)[C@H](C)[C@@H](O[C@H]2C[C@@](C)(OC)[C@@H](O)[C@H](C)O2)[C@H](C)[C@@H](O[C@@H]2O[C@H](C)C[C@H](N(C)C)[C@H]2O)[C@](C)(O)C[C@@H](C)[C@@H]2N[C@@H](COCCOC)O[C@H]([C@H]2C)[C@]1(C)O` [Dirithromycin] was run?
Answer: 84.85%
